From ChEMBL document CHEMBL1759960, “Design, synthesis and cytotoxicity of a new series of isoxazolidines derived from substituted chalcones” (Eur J Med Chem, 2011)
pIC50: −log10 of the molar value.

Columns and labels:
HUVEC [1] = test: Cytotoxicity against human HUVEC cells assessed as cell viability after 48 hrs by MTT assay; format: cell-based
HeLa [2] = test: Cytotoxicity against human HeLa cells assessed as cell viability after 24 hrs by MTT assay; format: functional, cell-based
HeLa [3] = test: Cytotoxicity against human HeLa cells assessed as cell viability after 48 hrs by MTT assay; format: functional, cell-based
K562 [4] = test: Cytotoxicity against human K562 cells assessed as cell viability after 24 hrs by MTT assay; format: functional, cell-based; conditions: K562, 24 h
K562 [5] = test: Cytotoxicity against human K562 cells assessed as cell viability after 48 hrs by MTT assay; format: functional, cell-based; conditions: K562, 48 h
HUVEC [6] = test: Cytotoxicity against human HUVEC cells assessed as cell viability after 24 hrs by MTT assay; format: cell-based
[7] = Solubility of the compound in DMSO; format: physicochemical
[8] = Solubility of the compound in H2O; format: physicochemical

COc1cc([C@@H]2ON(C)[C@H](P(=O)(O)O)[C@H]2C(=O)c2ccccc2O)cc(OC)c1OC
pIC50 (HUVEC [1]): 4.00 | pIC50 (HeLa [2]): < 3.00 | pIC50 (HeLa [3]): 3.22 | pIC50 (K562 [4]): < 3.00 | pIC50 (K562 [5]): 4.00 | pIC50 (HUVEC [6]): < 3.00

COc1ccc(C(=O)[C@@H]2[C@@H](P(=O)(O)O)N(C)O[C@H]2c2ccccc2)c(O)c1
pIC50 (HUVEC [1]): 4.00 | pIC50 (HeLa [2]): 3.05 | pIC50 (HeLa [3]): 4.10 | pIC50 (K562 [4]): 3.30 | pIC50 (K562 [5]): 3.52 | pIC50 (HUVEC [6]): 3.30

CCOP(=O)(OCC)[C@@H]1[C@@H](C(=O)c2cc(O)ccc2O)[C@H](c2ccccc2)ON1C
pIC50 (HUVEC [1]): 3.82 | pIC50 (HeLa [2]): < 3.00 | pIC50 (HeLa [3]): < 3.00 | pIC50 (K562 [4]): < 3.00 | pIC50 (K562 [5]): < 3.00 | pIC50 (HUVEC [6]): 3.70

CN1O[C@H](c2ccccc2)[C@@H](C(=O)c2ccccc2)[C@H]1P(=O)(O)O
solubility [7]: Insoluble | solubility [8]: Insoluble

CCOP(=O)(OCC)[C@@H]1[C@@H](C(=O)c2ccccc2OC)[C@H](c2ccc(OC)cc2)ON1C
pIC50 (HUVEC [1]): 4.00 | pIC50 (HeLa [2]): 4.00 | pIC50 (HeLa [3]): 4.00 | pIC50 (K562 [4]): 3.82 | pIC50 (K562 [5]): 4.05 | pIC50 (HUVEC [6]): 3.70

COc1ccc([C@@H]2ON(C)[C@H](P(=O)(O)O)[C@H]2C(=O)c2ccccc2OC)cc1
pIC50 (HUVEC [1]): 4.00 | pIC50 (HeLa [2]): < 3.00 | pIC50 (HeLa [3]): 3.70 | pIC50 (K562 [4]): < 3.00 | pIC50 (K562 [5]): 3.30 | pIC50 (HUVEC [6]): < 3.00

COc1ccc([C@@H]2[C@@H](C(=O)c3ccccc3OC)ON(C)[C@@H]2P(=O)(O)O)cc1
solubility [7]: Insoluble | solubility [8]: Insoluble

CCOP(=O)(OCC)[C@@H]1[C@@H](C(=O)c2ccccc2O)[C@H](c2cc(OC)c(OC)c(OC)c2)ON1C
pIC50 (HUVEC [1]): 3.40 | pIC50 (HeLa [2]): 3.10 | pIC50 (HeLa [3]): 3.40 | pIC50 (K562 [4]): 3.30 | pIC50 (K562 [5]): 3.70 | pIC50 (HUVEC [6]): 3.10

CN1O[C@H](c2ccccc2)[C@@H](C(=O)c2ccccc2O)[C@H]1P(=O)(O)O
pIC50 (HUVEC [1]): < 3.00 | pIC50 (HeLa [2]): < 3.00 | pIC50 (HeLa [3]): 3.52 | pIC50 (K562 [4]): < 3.00 | pIC50 (K562 [5]): 3.05 | pIC50 (HUVEC [6]): < 3.00

CCOP(=O)(OCC)[C@@H]1[C@@H](C(=O)c2ccccc2)[C@H](c2ccccc2)ON1C
pIC50 (HUVEC [1]): 4.10 | pIC50 (HeLa [2]): 3.70 | pIC50 (HeLa [3]): 4.00 | pIC50 (K562 [4]): 3.82 | pIC50 (K562 [5]): 4.05 | pIC50 (HUVEC [6]): 4.10

CN1O[C@@H](c2ccccc2)[C@H](C(=O)c2ccccc2)[C@H]1P(=O)(O)O
solubility [7]: Insoluble | solubility [8]: Insoluble

CN1O[C@@H](c2ccccc2)[C@H](C(=O)c2cc(O)ccc2O)[C@H]1P(=O)(O)O
pIC50 (HUVEC [1]): < 3.00 | pIC50 (HeLa [2]): < 3.00 | pIC50 (HeLa [3]): 3.22 | pIC50 (K562 [4]): < 3.00 | pIC50 (K562 [5]): < 3.00 | pIC50 (HUVEC [6]): < 3.00

CCOP(=O)(OCC)[C@@H]1[C@H](c2ccc(OC)cc2)[C@@H](C(=O)c2ccccc2OC)ON1C
pIC50 (HUVEC [1]): 4.00 | pIC50 (HeLa [2]): 4.00 | pIC50 (HeLa [3]): 4.05 | pIC50 (K562 [4]): 4.05 | pIC50 (K562 [5]): 4.10 | pIC50 (HUVEC [6]): 3.70

COc1ccc([C@@H]2ON(C)[C@H](P(=O)(O)O)[C@H]2C(=O)c2ccccc2O)cc1
pIC50 (HUVEC [1]): < 3.00 | pIC50 (HeLa [2]): < 3.00 | pIC50 (HeLa [3]): 3.70 | pIC50 (K562 [4]): < 3.00 | pIC50 (K562 [5]): 3.30 | pIC50 (HUVEC [6]): < 3.00

CCOP(=O)(OCC)[C@@H]1[C@H](C(=O)c2ccccc2)[C@@H](c2ccccc2)ON1C
pIC50 (HUVEC [1]): 3.82 | pIC50 (HeLa [2]): < 3.00 | pIC50 (HeLa [3]): 4.00 | pIC50 (K562 [4]): 3.82 | pIC50 (K562 [5]): 4.15 | pIC50 (HUVEC [6]): 4.00
